Experimental data: patent US20170035791A1, “COMBINATION OF BETA-GLUCOSYLCERAMIDE AND POLYETHOXYLATED CASTOR OIL AND OTHER ADJUVANTS FOR CONTROLING BLOOD SUGAR LEVELS, IMMUNOPROTECTION AND HEPATOPROTECTION” (NATURAL SHIELD ISRAEL 2016 LTD, priority 2014, published 2017)

Key:
ConA mouse model = assay: Concanavalin A (ConA) induced immune-mediated hepatitis, serum ALT and AST; format: in vivo, mice; conditions: ConA 0.5 mg/mouse i.v., oral GC 3 mg/mouse or C:E 30 μl/mouse, 15 hours following ConA
Description: Concanavalin A solution (ConA; purchased from MP Biomedicals, USA) consisted of 2 mg ConA in 1 ml distilled water. Mice were intravenously (IV) injected with 250 μl ConA solution (0.5 mg/mouse).
(§1) Mice were tested for serum alanine transaminase (ALT) and aspartate aminotransferase (AST) at 24 hours after acetaminophen administration. Serum AST and ALT levels were measured by an automatic analyzer.
The inventors next examined the effect of the combination of GC and C:E on the immune-mediated hepatitis in Con A mouse model. Details on the relevant experimental procedures are given above in experimental procedures. In brief, mice were injected i.v. with 250 μl ConA (0.5 mg/mouse) for 15 hrs prior to oral treatments, including C:E: ethanol 1:1 solution administered (30 μl/mouse); GC with CE as 100 mg GC dissolved in 1 ml C:E or GC in ethanol as 100 mg GC dissolved in 1 ml ethanol abs. administered (3 mg/mouse); control as PBS administered (30 μl/mouse).

[1] = test system: alcohol induced liver damage mouse model; assay: Alcohol induced liver damage in a mouse model, ALT; format: in vivo; conditions: mice, alcohol 6 gr/kg by gavage with 6 microgram GC; after 16 hours; EtOH alone 414, naive 28
Description: The inventors further characterized the ameliorating effect of the GC—the alcohol induced liver damage in a mouse model. Table 9 summarizes the relevant experimental groups, including group A of naïve mice; group B receiving alcohol 6 gr/kg-300 μl of 70% Ethanol per mouse/gavage i.e. 3500 μl EtOH Abs.+1500 μl sterile water (Ethanol is equal to 6 gr/kg for 27.5 gr mouse body weight).; Group C receiving 6 microgram of GC with alcohol. Mice were sacrificed after 16 hours and the level of liver enzymes was evaluated.

C57B1/6 mice [2] = assay: Blood sugar AUC in mice after oral Coca Cola with GC and/or CE add-on; format: in vivo; conditions: Coca Cola + add-on 350 μl/mouse by gavage, glucose at 0, 15, 30 min, Coca Cola alone 4785 ± 208
Description: Male C57B1/6 mice (11-12 weeks old) were obtained from Harlan Laboratories (Jerusalem, Israel) and maintained in the Animal Core of the Hadassah-Hebrew University Medical School. All mice were administered standard laboratory chow and water ad libitum and kept in a 12-hour light/dark cycle. SSBs (Coca Cola or orange flavored soda) including additives GC and/or CE were orally administered in a volume of 300-350 μl per mouse by gavage. The animal experiments were carried out according to the guidelines of the Hebrew University-Hadassah Institutional Committee for Care and Use of Laboratory Animals and with the committee's approval. […]
To evaluate the ability of GC to control blood sugar levels during consumption of a high glucose beverage, the inventors examined the effect of GC alone and of GC with CE combination, on mice consuming various high sugar soft drinks. […] Glucose levels were measured at 0, 15, and 30 min after Coca Cola administration.
To further evaluate the effect of C:E on blood sugar levels following consumption of Coca Cola, the inventors performed the experiment in Table 2, including group A receiving orally Coca Cola +C:E (350 μl/mouse by gavage) and group B receiving Coca Cola only (300 μl/mouse by gavage). Glucose levels were measured at 0, 15, and 30 min after Coca Cola administration.

C57B1/6 mice [3] = assay: Glucose tolerance test (GTT) in mice after Coca Cola with GC in C:E, GC in ethanol or C:E (Table 5, FIG. 5); format: in vivo; conditions: Coca Cola + add-on
Description: Male C57B1/6 mice (11-12 weeks old) were obtained from Harlan Laboratories (Jerusalem, Israel) and maintained in the Animal Core of the Hadassah-Hebrew University Medical School. All mice were administered standard laboratory chow and water ad libitum and kept in a 12-hour light/dark cycle. SSBs (Coca Cola or orange flavored soda) including additives GC and/or CE were orally administered in a volume of 300-350 μl per mouse by gavage. The animal experiments were carried out according to the guidelines of the Hebrew University-Hadassah Institutional Committee for Care and Use of Laboratory Animals and with the committee's approval.
Beta-glucosylceramide (GC) solution consisted of 60 mg GC (purchased from Avanti Polar Lipids; Alabaster, Ala., USA) dissolved in 1 ml mixture of 30% Cremophor EL (Sigma, Rehovot, Israel) and ethanol (1:1; CE) or ethanol alone. These served basis for preparation of SSBs containing GC and/or CE, including 1800 μl Coca Cola or other SSB and 400 μl GC in CE or ethanol or CE alone.
Mice undergo a glucose tolerance test on day 60. Glucose is administered orally (1 g per kg). Serum glucose measurements is performed on tail-vein blood every fifteen minutes for three hours. Glucose levels are measured by a standard glucometer. […]

human subject = assay: Blood sugar levels in a human subject after drinking Coca Cola with GC or GC with CE add-ons; format: in vivo; conditions: 500 ml Coca Cola with 28 mg GC add-on
Description: A human subject healthy person was monitored for blood sugar levels for 2 hours every 15 minutes following an overnight fast and drinking of 500 ml of Coca Cola alone or Coca Cola with GC or GC with CE add-ons.

[4] = test system: APAP-mediated liver toxicity in male adult mice; assay: Acetaminophen (APAP) mediated liver toxicity, serum ALT; format: in vivo; conditions: APAP 4.6 mg/mouse; oral treatment 1 hour after APAP, GC 3 mg/mouse or C:E 30 μl/mouse; 24 hours after APAP; control 15612
Description: Acetaminophen powder (APAP; was purchased from Sigma, cat. # A7085), was dissolved in a mixture of 30% Cremophor EL (Sigma, Rehovot, Israel) and ethanol (1:1) in DDW (Di distilled water).
as §1
APAP-mediated liver toxicity was induced in male adult mice fasted overnight and 2 hours after APAP administration. APAP was i.v. injected at the concentration of 4.6 mg/mouse. Various treatments, GC or C:E alone, GC with C:E and controls, were administered 1 hour after APAP injection. For various oral treatments, C:E: Cremophor:ethanol 1:1 solution was administered (30 μl/mouse); GC with CE: 100 mg GC dissolved in 1 ml C:E or GC in ethanol: 100 mg GC dissolved in 1 ml Ethanol Abs. were administered (3 mg/mouse); Control:PBS administered (30 μl/mouse).
All mice were sacrificed 24 hours after APAP administration and serum levels of ALT were measured.

Substance: Beta-glucosylceramide [GC]
- AST (serum) (ConA mouse model; control 8807): 2231
- ALT (serum) (ConA mouse model; control 8887): 1875
- ALT levees [1]: 73
- AUC 30 minutes (blood sugar levels) (C57B1/6 mice [2]): 4381.25 ± 320
- AUC at 30 minutes, effect compared to controls (FIG. 5B) (C57B1/6 mice [3]): significant
- Glucose (human subject; time 15 min): 128 mg %
- Glucose (human subject; time 30 min): 135 mg %
- Glucose (human subject; time 45 min): 152 mg %
- Glucose (human subject; time 60 min): 132 mg %
- Glucose (human subject; time 75 min): 124 mg %
- Glucose (human subject; time 90 min): 124 mg %
- Glucose (human subject; time 105 min): 96 mg %
- Glucose (human subject; time 120 min): 96 mg %
- Glucose (human subject; overnight fast, time 0 min): 95 mg %
- ALT (serum) [4]: 9290
